This is an account of results in patent US5840684A, “Glycopeptide antibiotic derivatives” (Eli Lilly and Company, priority 1995, dated 1998).

Assay [1] has as its system vancomycin-resistant enterococci. The assay is described as follows: broth micro-dilution, mean geometric MIC. Type of assay: cell-based, Enterococcus faecium and Enterococcus faecalis. The conditions noted are these: enterococci, 24-hour incubation. A general note: In broth dilution the organism is exposed to a series of concentrations in liquid medium.
The test system of the next assay is Entercoccus faecium 2041. The assay is described as follows: broth micro-dilution MIC. Format: cell-based. Conditions: Entercoccus faecium 2041. Here is the method: (§1) The formula I compounds have in vitro and in vivo activity against Gram-positive pathogenic bacteria. The MIC's were determined using a standard broth micro-dilution assay.
Assay [2] deals with Staphylococcus epidermidis 270. The assay is described as follows: broth micro-dilution MIC. Format: cell-based. How it is done:
as §1

Assay [3] concerns Haemophilus influenzae RD. The assay is described as follows: broth micro-dilution MIC. Format: cell-based. Conditions: Haemophilus influenzae RD. Here is the method: as §1
For assay [4], the system named is Streptococcus pneumoniae P1. The assay is described as follows: broth micro-dilution MIC. Format: cell-based. How it is done: as §1
Assay [5] has as its system Enterococcus gallinarum 245. The assay is described as follows: broth micro-dilution MIC. Type of assay: cell-based. Conditions: Enterococcus gallinarum 245. How it is done:
as §1

Assay [6] deals with Staphylococcus haemolyticus 415. The assay is described as follows: broth micro-dilution MIC. Type of assay: cell-based. How it is done: as §1
The next assay deals with Entercoccus faecium 180. The assay is described as follows: broth micro-dilution MIC. Format: cell-based. Conditions: Entercoccus faecium 180. Here is the method: as §1
The subject of the next assay is Escherichia coli EC14. The assay is described as follows: broth micro-dilution MIC. Format: cell-based. Here is the method: as §1
Assay [7] has as its system Staphylococcus haemolyticus 105. The assay is described as follows: broth micro-dilution MIC. Format: cell-based. How it is done:
as §1

In assay [8] the test system is Staphylococcus aureus 489. The assay is described as follows: broth micro-dilution MIC. Type of assay: cell-based. How it is done:
(§2) The MIC's were determined using a standard broth micro-dilution assay.

For assay [9], the system named is Staphylococcus aureus SA1199A. The assay is described as follows: broth micro-dilution MIC. Format: cell-based. How it is done: as §2
For assay [10], the system named is Staphylococcus aureus 446. The assay is described as follows: broth micro-dilution MIC. Type of assay: cell-based. Here is the method:
as §2

In assay [11] the test system is Staphylococcus aureus X400. The assay is described as follows: broth micro-dilution MIC. Format: cell-based. Here is the method: as §2
The test system of assay [12] is Staphylococcus aureus X778. The assay is described as follows: broth micro-dilution MIC. Format: cell-based. How it is done:
as §2

Assay [13] has as its system Staphylococcus aureus SA1199. The assay is described as follows: broth micro-dilution MIC. Type of assay: cell-based. Here is the method:
as §2

Assay [14] deals with Entercoccus faecium 180-1. The assay is described as follows: broth micro-dilution MIC. Format: cell-based. How it is done: as §2
The subject of assay [15] is Staphylococcus aureus 491. The assay is described as follows: broth micro-dilution MIC. Type of assay: cell-based. Here is the method: as §2
The subject of the next assay is Entercoccus faecium 276. The assay is described as follows: broth micro-dilution MIC. Type of assay: cell-based. How it is done: as §2
Assay [16] has as its system Streptococcus pyogenes C203. The assay is described as follows: broth micro-dilution MIC. Type of assay: cell-based. Here is the method: as §2
Assay [17] relates to Staphylococcus aureus 447. The assay is described as follows: broth micro-dilution MIC. Type of assay: cell-based. How it is done: as §2
For assay [18], the system named is Staphylococcus aureus SA1199B. Type of assay: cell-based. Here is the method:
as §2

The test system of assay [19] is Staphylococcus aureus S13E. Format: cell-based. How it is done: as §2
Assay [20] has as its system vancomycin-susceptible enterococci. The assay is described as follows: broth micro-dilution, mean geometric MIC. Conditions: enterococci, 24-hour incubation. Type of assay: cell-based, Enterococcus faecium and Enterococcus faecalis.

Converted amounts (≈) assume the structure as drawn.

On to `CNC(CC(C)C)C(=O)NC1C(=O)NC(CC(N)=O)C(=O)NC2C(=O)NC3C(=O)NC(C(=O)NC(C(=O)O)c4cc(O)cc(O)c4-c4cc3ccc4O)C(OC3CC(C)(NCc4ccc(-c5ccc(Cl)cc5)cc4)C(O)C(C)O3)c3ccc(c(Cl)c3)Oc3cc2cc(c3OC2OC(CO)C(O)C(O)C2OC2CC(C)(NCc3ccc(-c4ccc(Cl)cc4)cc3)C(O)C(C)O2)Oc2ccc(cc2Cl)C1O.O=C(O)C(F)(F)F` (stereo not drawn) [Compound 254], for which the “mean geometric MIC, Vancomycin Resistant Strains” value in assay [1] turned out to be 2 µg/mL. Moreover, the MIC with Entercoccus faecium 2041 is 4 µg/mL; in assay [2], 8 µg/mL; in assay [3], over 64 µg/mL; in assay [4], at most 0.06 µg/mL; in [5], 16 µg/mL; in [6] it was 16 µg/mL. In addition, the MIC is 0.25 µg/mL in the assay with Entercoccus faecium 180; over 64 µg/mL in the assay with Escherichia coli EC14; 16 µg/mL in assay [7]; 16 µg/mL in assay [8]; 0.5 µg/mL in assay [9]; 32 µg/mL in assay [10]. The MIC in assay [11] is 8 µg/mL; in assay [12] it was 4 µg/mL; in assay [13], 8 µg/mL; in assay [14] it was 0.25 µg/mL; in assay [15] it was 1 µg/mL; against Entercoccus faecium 276, 8 µg/mL. Besides, the MIC in [16] was determined as 0.5 µg/mL; in assay [17], 16 µg/mL; in assay [18] it was 16 µg/mL; in [19], 32 µg/mL. Also, the “mean geometric MIC, Vancomycin Sensitive Strains” value in assay [20] was determined as 0.5 µg/mL.

As to `COc1ccc2ccccc2c1CNC1(C)CC(OC2C(Oc3c4cc5cc3Oc3ccc(cc3Cl)C(OC3CC(C)(N)C(O)C(C)O3)C3NC(=O)C(NC(=O)C5NC(=O)C(CC(N)=O)NC(=O)C(NC(=O)C(CC(C)C)N(C)Cc5c(OC)ccc6ccccc56)C(O)c5ccc(c(Cl)c5)O4)c4ccc(O)c(c4)-c4c(O)cc(O)cc4C(C(=O)O)NC3=O)OC(CO)C(O)C2O)OC(C)C1O` (stereo not drawn) [Compound 282], the “mean geometric MIC, Vancomycin Resistant Strains” value in assay [1] turned out to be 45 µg/mL. Further, the MIC is 4 µg/mL (≈ 2.07 µM) in the assay with Entercoccus faecium 2041; over 64 µg/mL in assay [2]; over 64 µg/mL in assay [3]; at most 0.06 µg/mL in [4]; over 64 µg/mL in [5]; over 64 µg/mL in assay [6]. Moreover, the MIC against Entercoccus faecium 180 was 32 µg/mL (≈ 16.6 µM); against Escherichia coli EC14, over 64 µg/mL; in assay [7] it was over 64 µg/mL; in assay [8], 8 µg/mL (≈ 4.14 µM); in [9], 1 µg/mL (≈ 0.517 µM); in assay [10], 32 µg/mL (≈ 16.6 µM). Also, the MIC was found to be 16 µg/mL (≈ 8.28 µM) in assay [11]; 16 µg/mL (≈ 8.28 µM) in [12]; 16 µg/mL (≈ 8.28 µM) in [13]; 1 µg/mL (≈ 0.517 µM) in assay [14]; 16 µg/mL (≈ 8.28 µM) in assay [15]; 4 µg/mL (≈ 2.07 µM) with Entercoccus faecium 276. For the same molecule, the MIC in assay [16] was at most 0.06 µg/mL; in assay [17], over 64 µg/mL; in assay [18], 16 µg/mL (≈ 8.28 µM); in assay [19] it was 16 µg/mL (≈ 8.28 µM). Moreover, in assay [20], the “mean geometric MIC, Vancomycin Sensitive Strains” value is 2.6 µg/mL.

As for `COc1cc(CNC2(C)CC(OC3C(Oc4c5cc6cc4Oc4ccc(cc4Cl)C(OC4CC(C)(N)C(O)C(C)O4)C4NC(=O)C(NC(=O)C6NC(=O)C(CC(N)=O)NC(=O)C(NC(=O)C(CC(C)C)N(C)Cc6ccc(OCc7ccccc7)c(OC)c6)C(O)c6ccc(c(Cl)c6)O5)c5ccc(O)c(c5)-c5c(O)cc(O)cc5C(C(=O)O)NC4=O)OC(CO)C(O)C3O)OC(C)C2O)ccc1OCc1ccccc1` (stereo not drawn) [Compound 268], the “mean geometric MIC, Vancomycin Resistant Strains” value in assay [1] is 6.7 µg/mL. For the same molecule, the MIC against Entercoccus faecium 2041 is 1 µg/mL (≈ 0.489 µM); in [2] it was 1 µg/mL (≈ 0.489 µM); in assay [3], over 64 µg/mL; in assay [4] it was at most 0.06 µg/mL; in assay [5], 4 µg/mL (≈ 1.96 µM); in assay [6], 4 µg/mL (≈ 1.96 µM). Besides, the MIC with Entercoccus faecium 180 is 0.5 µg/mL (≈ 0.244 µM); in the assay with Escherichia coli EC14 it was over 64 µg/mL; in [7], 8 µg/mL (≈ 3.91 µM); in [8] it was 1 µg/mL (≈ 0.489 µM); in [9], 0.5 µg/mL (≈ 0.244 µM); in [10], 2 µg/mL (≈ 0.978 µM). For the same molecule, the MIC in assay [11] is 2 µg/mL (≈ 0.978 µM); in assay [12], 2 µg/mL (≈ 0.978 µM); in [13] it was 4 µg/mL (≈ 1.96 µM); in assay [14] it was 0.25 µg/mL (≈ 0.122 µM); in [15] it was 1 µg/mL (≈ 0.489 µM); against Entercoccus faecium 276, 2 µg/mL (≈ 0.978 µM). The MIC in [16] was at most 0.06 µg/mL; in assay [17], 4 µg/mL (≈ 1.96 µM); in assay [18], 2 µg/mL (≈ 0.978 µM); in assay [19], 4 µg/mL (≈ 1.96 µM). In assay [20], the “mean geometric MIC, Vancomycin Sensitive Strains” value was determined as 0.87 µg/mL.

In the case of `CC(C)CC(C(=O)NC1C(=O)NC(CC(N)=O)C(=O)NC2C(=O)NC3C(=O)NC(C(=O)NC(C(=O)O)c4cc(O)cc(O)c4-c4cc3ccc4O)C(OC3CC(C)(N)C(O)C(C)O3)c3ccc(c(Cl)c3)Oc3cc2cc(c3OC2OC(CO)C(O)C(O)C2OC2CC(C)(NCc3ccc(Oc4ccc([N+](=O)[O-])cc4)cc3)C(O)C(C)O2)Oc2ccc(cc2Cl)C1O)N(C)Cc1ccc(Oc2ccc([N+](=O)[O-])cc2)cc1` (stereo not drawn) [Compound 267], the “mean geometric MIC, Vancomycin Resistant Strains” value in assay [1] amounted to 2.8 µg/mL. Further, the MIC against Entercoccus faecium 2041 was 0.25 µg/mL (≈ 0.122 µM); in assay [2], 4 µg/mL (≈ 1.95 µM); in assay [3], over 64 µg/mL; in assay [4] it was at most 0.06 µg/mL; in [5], 4 µg/mL (≈ 1.95 µM); in assay [6], 4 µg/mL (≈ 1.95 µM). Moreover, the MIC against Entercoccus faecium 180 is 0.25 µg/mL (≈ 0.122 µM); against Escherichia coli EC14, over 64 µg/mL; in assay [7], 16 µg/mL (≈ 7.82 µM); in assay [8], 0.25 µg/mL (≈ 0.122 µM); in assay [9], at most 0.06 µg/mL; in assay [10], 0.5 µg/mL (≈ 0.244 µM). The MIC in assay [11] turned out to be 0.5 µg/mL (≈ 0.244 µM); in [12], 1 µg/mL (≈ 0.489 µM); in assay [13], 2 µg/mL (≈ 0.977 µM); in assay [14] it was 0.125 µg/mL (≈ 0.0611 µM); in assay [15], 1 µg/mL (≈ 0.489 µM); in the assay with Entercoccus faecium 276, 1 µg/mL (≈ 0.489 µM). Further, the MIC in assay [16] is at most 0.06 µg/mL; in [17], 0.5 µg/mL (≈ 0.244 µM); in assay [18], 1 µg/mL (≈ 0.489 µM); in assay [19] it was 1 µg/mL (≈ 0.489 µM). Also, the “mean geometric MIC, Vancomycin Sensitive Strains” value in [20] worked out at 0.22 µg/mL.

For the molecule `CC(C)CC(C(=O)NC1C(=O)NC(CC(N)=O)C(=O)NC2C(=O)NC3C(=O)NC(C(=O)NC(C(=O)O)c4cc(O)cc(O)c4-c4cc3ccc4O)C(OC3CC(C)(N)C(O)C(C)O3)c3ccc(c(Cl)c3)Oc3cc2cc(c3OC2OC(CO)C(O)C(O)C2OC2CC(C)(N)C(O)C(C)O2)Oc2ccc(cc2Cl)C1O)N(C)Cc1ccc(-c2ccc(Cl)cc2)cc1.O=C(O)C(F)(F)F` (stereo not drawn) [Compound 252], the “mean geometric MIC, Vancomycin Resistant Strains” value in [1] was determined as 9.5 µg/mL. The MIC was at most 0.06 µg/mL in the assay with Entercoccus faecium 2041; 0.125 µg/mL in [2]; over 64 µg/mL in assay [3]; at most 0.06 µg/mL in assay [4]; 1 µg/mL in [5]; 1 µg/mL in assay [6]. The MIC against Entercoccus faecium 180 was 0.5 µg/mL; with Escherichia coli EC14, over 64 µg/mL; in [7], 0.5 µg/mL; in assay [8] it was at most 0.06 µg/mL; in [9], at most 0.06 µg/mL; in [10], 0.125 µg/mL. The MIC in assay [11] was 0.125 µg/mL; in assay [12], at most 0.06 µg/mL; in assay [13], 0.125 µg/mL; in [14], at most 0.06 µg/mL; in assay [15], at most 0.06 µg/mL; in the assay on Entercoccus faecium 276 it was at most 0.06 µg/mL. For the same molecule, the MIC in assay [16] is at most 0.06 µg/mL; in assay [17], at most 0.06 µg/mL; in assay [18], at most 0.06 µg/mL; in [19], 0.125 µg/mL. Also, in assay [20], the “mean geometric MIC, Vancomycin Sensitive Strains” value stood at 0.1 µg/mL.
